Laboratory results as given in the supplement of paper PMC10307832.

Experiments:
Assay in all cases: relative viability (nuclei count vs DMSO), 5 days (fraction); higher = more cells survive
Bleomycin + Palbociclib = compound: CC1=C(N=C(N=C1N)[C@H](CC(=O)N)NC[C@@H](C(=O)N)N)C(=O)N[C@@H]([C@H](C2=CN=CN2)OC3C(C(C(C(O3)CO)O)O)OC4C(C(C(C(O4)CO)O)OC(=O)N)O)C(=O)N[C@H](C)[C@H]([C@H](C)C(=O)N[C@@H]([C@@H](C)O)C(=O)NCCC5=NC(=CS5)C6=NC(=CS6)C(=O)NCCC[S+](C)C)O [Bleomycin] + CC(=O)c1c(C)c2cnc(Nc3ccc(N4CCNCC4)cn3)nc2n(C2CCCC2)c1=O [Palbociclib] (partner 0.5 µM); settings: main component drawn
Method in brief: (§1)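 Each reported value is a median over duplicate plates. It expresses relative viability: treated-well nuclei count divided by vehicle-well nuclei count. Lung cancer cell lines in 1536-well plates were dosed by pin tool a day after seeding, alone with one drug or with a fixed anchor-drug dose plus five library-drug doses (not always all listed) in √10 steps, and nuclei were counted after 5 days.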

Bleomycin + Navitoclax = compound: CC1=C(N=C(N=C1N)[C@H](CC(=O)N)NC[C@@H](C(=O)N)N)C(=O)N[C@@H]([C@H](C2=CN=CN2)OC3C(C(C(C(O3)CO)O)O)OC4C(C(C(C(O4)CO)O)OC(=O)N)O)C(=O)N[C@H](C)[C@H]([C@H](C)C(=O)N[C@@H]([C@@H](C)O)C(=O)NCCC5=NC(=CS5)C6=NC(=CS6)C(=O)NCCC[S+](C)C)O [Bleomycin] + CC1(C)CCC(c2ccc(Cl)cc2)=C(CN2CCN(c3ccc(C(=O)NS(=O)(=O)c4ccc(N[C@H](CCN5CCOCC5)CSc5ccccc5)c(S(=O)(=O)C(F)(F)F)c4)cc3)CC2)C1 [Navitoclax] (partner 0.5 µM); settings: main component drawn
Method in brief: as §1

Etoposide + Crizotinib = compound: COc1cc([C@@H]2c3cc4c(cc3[C@@H](O[C@@H]3O[C@@H]5CO[C@@H](C)O[C@H]5[C@H](O)[C@H]3O)[C@H]3COC(=O)[C@H]23)OCO4)cc(OC)c1O [Etoposide] + C[C@@H](Oc1cc(-c2cnn(C3CCNCC3)c2)cnc1N)c1c(Cl)ccc(F)c1Cl [Crizotinib] (partner 1 µM)
Method in brief: as §1

Etoposide + Linsitinib = compound: COc1cc([C@@H]2c3cc4c(cc3[C@@H](O[C@@H]3O[C@@H]5CO[C@@H](C)O[C@H]5[C@H](O)[C@H]3O)[C@H]3COC(=O)[C@H]23)OCO4)cc(OC)c1O [Etoposide] + C[C@]1(O)C[C@@H](c2nc(-c3ccc4ccc(-c5ccccc5)nc4c3)c3c(N)nccn32)C1 [Linsitinib] (partner 1 µM)
Method in brief: as §1

Cell Line	relative viability (Bleomycin + Palbociclib; first compound 0.01 µM)	relative viability (Bleomycin + Palbociclib; first compound 0.03162 µM)	relative viability (Bleomycin + Palbociclib; first compound 0.1 µM)	relative viability (Bleomycin + Palbociclib; first compound 0.3162 µM)	relative viability (Bleomycin + Palbociclib; first compound 1 µM)	relative viability (Bleomycin + Navitoclax; first compound 0.01 µM)	relative viability (Bleomycin + Navitoclax; first compound 0.03162 µM)	relative viability (Bleomycin + Navitoclax; first compound 0.1 µM)	relative viability (Bleomycin + Navitoclax; first compound 0.3162 µM)	relative viability (Bleomycin + Navitoclax; first compound 1 µM)	relative viability (Etoposide + Crizotinib; first compound 0.01 µM)	relative viability (Etoposide + Crizotinib; first compound 0.03162 µM)	relative viability (Etoposide + Crizotinib; first compound 0.1 µM)	relative viability (Etoposide + Crizotinib; first compound 0.3162 µM)	relative viability (Etoposide + Crizotinib; first compound 1 µM)	relative viability (Etoposide + Linsitinib; first compound 0.01 µM)	relative viability (Etoposide + Linsitinib; first compound 0.03162 µM)	relative viability (Etoposide + Linsitinib; first compound 0.1 µM)	relative viability (Etoposide + Linsitinib; first compound 0.3162 µM)	relative viability (Etoposide + Linsitinib; first compound 1 µM)
201T	0.397	0.32	0.384	0.311	0.336	1.17	1.13	1.18	1.16	1.04	1.02	1.03	0.975	0.898	0.678	1.12	1.04	0.899	1	0.745
A549						0.933	0.827	0.54	0.127	0.0446	0.734	0.624	0.406	0.152	0.083	0.41	0.584	0.225	0.262	0.0891
A-427	0.458	0.453	0.447	0.276	0.256	0.844	0.888	0.991	0.787	0.27	0.875	0.837	0.717	0.263	0.153	1.17	1.16	0.815	0.841	0.243
ABC-1	0.467	0.822	0.789	0.512	0.433						0.791	0.965	0.892	0.395	0.179	0.753	0.894	0.879	0.418	0.308
BEN	0.482	0.473	0.452	0.444	0.408	0.0606	0.0742	0.0676	0.0599	0.0555	0.701	0.827		0.828	0.693	0.695	0.983		0.78	0.681
CAL-12T	0.309	0.365	0.232	0.116	0.192	0.964	0.785	0.551	0.228	0.201	0.547	0.573	0.82	0.298	0.223	0.791	0.849	0.619	0.597	0.181
COR-L23	0.184	0.237	0.151	0.115	0.0887	0.811	0.723	0.332	0.0914	0.104	0.548	0.68	0.802	0.45	0.198	0.818	0.841	0.942	0.578	0.237
COR-L 105	0.389	0.37	0.435	0.392	0.395	0.59	0.884	0.716	0.483	0.28	0.675	0.51	0.709	0.644	0.543	0.874	0.958	1.02	0.769	0.713
